Positions of bridges follow the written chain, without caps; N, C: chain ends. Non-standard residues stand in square brackets, D forms with d. Residues, ends and D or L forms follow the SMILES beside them. S5 = C=CCCC[C@](C)(N)C(=O)O; Nle = CCCC[C@H](N)C(=O)O
Assays:
[1] = system: MEF cells; assay: Lactate dehydrogenase (LDH) release assay, non-specific cell lysis; assay type: cell-based
Description: FIG. 5|Results of studies assessing non-specific cell-lysis by internally cross-linked peptides. Lactate dehydrogenase release assays (LDH) identified membrane-disruptive peptides 3 (SEQ ID NO:9) and 7 (SEQ ID NO:7); tested in MEF cells. Peptides 7, 10, 3, and 11-20 are SEQ ID NOs: 7, 8, 9, and 10-19 respectively.
Additional studies examined the non-specific cell lysis activity of peptide 3 (SEQ ID NO:9) (M1 SAHBd) and certain sequence variants of peptide 3 (SEQ ID NO:9) (M1 SAHBd).

[2] = target: T1, Mcl-1 (Homo sapiens, UniProt Q07820); assay: IC50 (nM)
Description: Table printed on a drawing sheet, FIG. 8
Head of the field: IC50 (nM)
The patent's description of the figure: FIG. 8|Results of studies assessing cell permeability of various internally cross-linked peptides. Stapled peptides based on MB2 lead peptide are shown. […] MB2 (SEQ ID NO:23); B1 SAHBa (SEQ ID NO:24); B1 SAHBf (SEQ ID NO:25); B1 DAHBd (SEQ ID NO:26); B2 SAHBd (SEQ ID NO:27); B3 SAHBd (SEQ ID NO:28); B1 SAHBg (SEQ ID NO:29); B1 SAHBh (SEQ ID NO:30).

[3] = target: T1, Mcl-1; assay: Fluorescence anisotropy direct binding of N-terminal fluorescein peptides; conditions: 23-residue peptide with N-terminal fluorescein
Target sequence in this assay (Q07820 whole entry): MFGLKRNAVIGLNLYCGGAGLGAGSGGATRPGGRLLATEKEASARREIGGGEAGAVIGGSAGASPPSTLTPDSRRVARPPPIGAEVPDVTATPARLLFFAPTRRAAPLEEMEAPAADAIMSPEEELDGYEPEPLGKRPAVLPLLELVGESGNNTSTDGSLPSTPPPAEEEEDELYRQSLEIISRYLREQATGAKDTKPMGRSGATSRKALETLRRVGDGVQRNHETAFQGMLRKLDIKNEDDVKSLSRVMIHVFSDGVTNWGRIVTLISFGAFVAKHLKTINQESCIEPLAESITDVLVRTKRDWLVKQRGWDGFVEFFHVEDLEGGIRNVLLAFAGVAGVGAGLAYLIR

[4] = target: Bcl-w (Homo sapiens, UniProt Q92843); assay: receptor | Bcl-w
[5] = target: Bfl-1 (Homo sapiens, UniProt Q16548); assay: receptor | Bfl-1
[6] = target: T1, Mcl-1; assay: receptor | Mcl-1; conditions: read-out: receptor | Mcl-1
Target sequence in this assay (Q07820 whole entry, looked up): as the sequence (Q07820 whole entry) above

[7] = target: T2, Bcl-2 (Homo sapiens, UniProt P10415); assay: receptor | Bcl-2
Target sequence in this assay (P10415 whole entry, looked up): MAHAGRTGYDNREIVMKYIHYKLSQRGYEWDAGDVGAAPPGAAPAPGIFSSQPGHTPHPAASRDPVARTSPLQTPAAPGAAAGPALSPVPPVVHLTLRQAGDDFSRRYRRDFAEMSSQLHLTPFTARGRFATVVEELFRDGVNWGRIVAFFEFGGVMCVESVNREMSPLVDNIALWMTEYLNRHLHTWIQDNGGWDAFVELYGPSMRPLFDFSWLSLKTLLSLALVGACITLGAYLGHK

[8] = target: T3, Bcl-xL (Homo sapiens, UniProt Q07817); assay: receptor | Bcl-xL
Target sequence in this assay (Q07817 whole entry, looked up): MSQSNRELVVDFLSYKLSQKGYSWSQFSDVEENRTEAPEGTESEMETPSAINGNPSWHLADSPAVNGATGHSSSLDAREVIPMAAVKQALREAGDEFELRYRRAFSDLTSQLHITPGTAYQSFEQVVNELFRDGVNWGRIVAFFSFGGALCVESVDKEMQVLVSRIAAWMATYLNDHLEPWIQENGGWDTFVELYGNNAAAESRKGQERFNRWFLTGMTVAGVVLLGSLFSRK

[9] = target: T3, Bcl-xL; assay: Fluorescence anisotropy direct binding of N-terminal fluorescein peptides
Target sequence in this assay (Q07817 whole entry): as the sequence (Q07817 whole entry, looked up) above

[10] = target: T4, Bfl-1 (Homo sapiens, UniProt Q16548); assay: as above
T4 sequence (Q16548 1-175): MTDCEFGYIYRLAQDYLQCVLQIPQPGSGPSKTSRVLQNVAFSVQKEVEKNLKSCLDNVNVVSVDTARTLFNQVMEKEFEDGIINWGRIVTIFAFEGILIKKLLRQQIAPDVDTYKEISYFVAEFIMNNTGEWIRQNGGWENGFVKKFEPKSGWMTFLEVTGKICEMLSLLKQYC

[11] = target: T5, Bcl-w (Homo sapiens, UniProt Q92843); assay: as above
T5 sequence (Q92843 1-193): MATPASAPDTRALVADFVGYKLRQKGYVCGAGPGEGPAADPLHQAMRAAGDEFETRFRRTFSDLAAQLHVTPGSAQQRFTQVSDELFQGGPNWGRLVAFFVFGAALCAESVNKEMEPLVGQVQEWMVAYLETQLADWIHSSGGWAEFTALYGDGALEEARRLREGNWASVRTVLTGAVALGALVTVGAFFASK

[12] = system: MDA-MB-231 cells
Method: (§1) A whole-cell BH3 profiling assay was used to test the specificity of our Mcl-1-binding peptides in several cell lines with differing dependencies on Bcl-2, Mcl-1, Bcl-xL, or Bfl-1. In this assay, permeabilized cells were treated with increasing doses of BH3 peptides, and mitochondrial outer membrane permeabilization (MOMP) was monitored using the dye JC-1 (see below). Mcl-1/Myc 2640 is an engineered murine leukemia cell line overexpressing murine Mcl-1 and Myc, and Bcl-2/Myc 2924 is a similarly engineered cell line overexpressing human Bcl-2.
(§2) Assay plates were produced by serial dilution of each peptide from 200 μM to 0.2 nM using 10-fold dilutions in DTEB (Derived from Trehalose Experimental Buffer: 135 mM trehalose, 50 mM KCl, 20 μM EDTA, 20 μM EGTA, 0.1% BSA, 5 mM succinate, 10 mM HEPES-KOH pH 7.5) containing 0.005% w/v digitonin, 10 mM 2-mercaptoethanol, 2 μM JC-1, and 20 mg mL-1 oligomycin. Triplicate wells for each peptide were made for each cell line by adding 15 μL of the peptide dilutions to each well of a black, untreated 384-well plate. Control wells containing no peptide or 20 μM FCCP (carbonyl cyanide-4(trifluoromethoxy) phenylhydrazone, a chemical uncoupler of oxidative phosphorylation) were included for zero and complete depolarization, respectively. Multiple plates were produced from the same stock and frozen at −80 ° C. for later use. Frozen plates were brought to RT prior to use, cells were suspended in DTEB at a density of 1.34×10^6 cells/mL, and 15 μL of cell suspension was added to each well of the dilution series to yield wells ranging from 0.1 nM to 100 μM peptide and 20000 cells/well. Fluorescence of JC-1 aggregates was measured at 590 nm with 545 nm excitation on a Tecan Safire2 at 5 min intervals for 3 h. The area under each signal-vs-time curve was calculated and normalized to the untreated and FCCP values to produce the percent depolarization. Curves were plotted as the log [peptide] vs percent depolarization, with sigmoidal dose—response curves fitted using Graphpad PRISM 6.

[13] = system: Pfeiffer cells
Method: as §1, §2

[14] = system: Mcl-1/Myc 2640 cells
Method: as §1, §2

[15] = system: Bcl-2/Myc 2924 cells
Method: as §1, §2

[16] = target: T2, Bcl-2; assay: Fluorescence anisotropy direct binding of N-terminal fluorescein peptides
Target sequence in this assay (P10415 whole entry): as the sequence (P10415 whole entry, looked up) above

[17] = target: T2, Bcl-2; conditions: reported in the literature; cited from earlier work
Target sequence in this assay (P10415 whole entry, species assumed): as the sequence (P10415 whole entry, looked up) above

[18] = target: T3, Bcl-xL; conditions: reported in the literature; cited from earlier work
Target sequence in this assay (Q07817 whole entry, species assumed): as the sequence (Q07817 whole entry, looked up) above

[19] = system: Bfl-1; conditions: reported in the literature; cited from earlier work
[20] = target: T1, Mcl-1; assay: Competition of unlabeled peptides with a fluorescently labeled Bim variant; conditions: unlabeled peptide
Target sequence in this assay (Q07820 whole entry): as the sequence (Q07820 whole entry) above

[21] = target: T5, Bcl-w; conditions: reported in the literature; cited from earlier work
[22] = system: Human multiple myeloma cell lines dependent upon Mcl-1
Method: as §1, §2

[23] = parent: Bim for Bim_A2eT, Bim_A2eT for its point mutants, A12/B3 for MS1/MS2

Compound: CCCC[C@H](NC(=O)[C@H](Cc1c[nH]c2ccccc12)NC(=O)[C@@H](NC(C)=O)[C@@H](C)CC)C(=O)N[C@H](C(=O)N[C@@H](CCC(N)=O)C(=O)NCC(=O)N[C@@H](CC(C)C)C(=O)N[C@@H](CCCNC(=N)N)C(=O)N[C@@]1(C)CCCC=CCCC[C@@](C)(C(=O)N[C@H](C(=O)N[C@@H](CC(N)=O)C(=O)N[C@@H](C)C(=O)N[C@@H](Cc2ccc(O)cc2)C(=O)N[C@@H](Cc2ccc(O)cc2)C(=O)N[C@@H](C)C(=O)N[C@@H](CCCNC(=N)N)C(=O)N[C@@H](CCCNC(=N)N)C(N)=O)[C@@H](C)CC)NC(=O)[C@H](CC(=O)O)NC(=O)CNC(=O)[C@H](CC(C)C)NC1=O)[C@@H](C)O [peptide 7, IWNleTQGLRXLGDXINAYYARR] (Ac-IW[Nle]TQGLR[S5]LGD[S5]INAYYARR-NH2; staple 9-13; N-terminus assumed)
- LDH release, membrane disruption (in words) [1]: membrane-disruptive

Compound: IWFAQEIDRIGDEVNAYYARR (See specification as filed for detailed description of substitutions and preferred embodiments) [B1, native, non-stapled B1 peptide]
- IC50 [2]: 90 nM

Compound: RPEIWMGQGLRRLGDEINAYYAR [A12, Bim-BH3 variant clone from yeast surface display library]
- binding preference among KSBcl-2 and five human Bcl-2 family proteins [3]: bound to KSBci-2 and Mcl-1 in preference to Bcl-2, Bfl-1, Bcl-w, and to a lesser extent Bcl-xL

Compound: RPEIWLGQSLQRLGDEINAYYAR [B3, Bim-BH3 variant clone from yeast surface display library]
- binding preference among KSBcl-2 and five human Bcl-2 family proteins [3]: bound to KSBci-2 and Mcl-1 in preference to Bcl-2, Bfl-1, Bcl-w, and to a lesser extent Bcl-xL

Compound: CC[C@H](C)[C@H](NC(=O)[C@H](CCCNC(=N)N)NC(=O)[C@H](CCCNC(=N)N)NC(=O)[C@H](CC(C)C)NC(=O)CNC(=O)[C@H](CCC(N)=O)NC(=O)[C@@H](NC(=O)[C@@H](NC(=O)[C@H](Cc1c[nH]c2ccccc12)NC(=O)[C@@H](NC(=O)[C@H](CCC(=O)O)NC(=O)[C@@H]1CCCN1C(=O)[C@@H](N)CCCNC(=N)N)[C@@H](C)CC)[C@@H](C)CC)[C@@H](C)O)C(=O)NCC(=O)N[C@@H](CC(=O)O)C(=O)N[C@@H](CCC(=O)O)C(=O)N[C@@H](Cc1ccccc1)C(=O)N[C@@H](CC(N)=O)C(=O)N[C@@H](C)C(=O)N[C@@H](Cc1ccc(O)cc1)C(=O)N[C@@H](Cc1ccc(O)cc1)C(=O)N[C@@H](C)C(=O)N[C@@H](CCCNC(=N)N)C(N)=O [Bim_A2eT_E2gG]
- Kd [4]: 94 ± 36 nM
- Kd [5]: 250 ± 63 nM
- Kd [6]: 1.6 ± 0.57 nM
- Kd [7]: 150 ± 27 nM
- Kd [8]: 37 ± 7 nM

Compound: CC[C@H](C)[C@H](NC(=O)[C@H](CCC(=O)O)NC(=O)[C@H](CC(=O)O)NC(=O)CNC(=O)[C@H](CC(C)C)NC(=O)[C@H](CCCNC(=N)N)NC(=O)[C@H](CCC(N)=O)NC(=O)[C@H](CC(C)C)NC(=O)[C@H](CO)NC(=O)[C@H](CCC(N)=O)NC(=O)[C@@H](NC(=O)[C@H](CC(C)C)NC(=O)[C@H](Cc1c[nH]c2ccccc12)NC(=O)[C@@H](NC(=O)[C@H](CCC(=O)O)NC(=O)[C@@H]1CCCN1C(=O)[C@H](CCCNC(=N)N)NC(C)=O)[C@@H](C)CC)[C@@H](C)O)C(=O)N[C@@H](CC(N)=O)C(=O)N[C@@H](C)C(=O)N[C@@H](Cc1ccc(O)cc1)C(=O)N[C@@H](Cc1ccc(O)cc1)C(=O)N[C@@H](C)C(=O)N[C@@H](CCCNC(=N)N)C(N)=O [MS2]
- binding affinity to Bcl-xL (in words) [9]: micromolar affinity
- reduction in Bcl-xL binding relative to the peptide without the mutation [9, 23]: ~100 fold
- binding affinity to Bfl-1 (in words) [10]: micromolar affinity
- reduction in Bfl-1 binding relative to the peptide without the mutation [10, 23]: ~100 fold
- binding affinity to Bcl-w (in words) [11]: hundred-nanomolar range
- reduction in Bcl-w binding relative to the peptide without the mutation [11, 23]: ~10 fold
- EC50 [12]: > 100000 nM
- EC50 [13]: > 100000 nM
- EC50 [14]: 700 nM
- EC50 [15]: > 100000 nM
- binding affinity to Bcl-2 (in words) [16]: micromolar affinity
- reduction in Bcl-2 binding relative to the peptide without the mutation [16, 23]: ~100 fold

Compound: CC[C@H](C)[C@H](NC(=O)[C@H](CCCCN)NC(=O)[C@H](CCCNC(=N)N)NC(=O)[C@H](CC(C)C)NC(=O)[C@H](CCC(N)=O)NC(=O)[C@H](C)NC(=O)[C@H](C)NC(=O)[C@H](Cc1ccccc1)NC(=O)[C@H](CCC(=O)O)NC(=O)[C@@H]1CCCN1C(=O)[C@@H]1CCCN1C(=O)[C@H](CC(C)C)NC(=O)[C@H](CCC(=O)O)NC(=O)[C@H](C)NC(C)=O)C(=O)NCC(=O)N[C@@H](CC(=O)O)C(=O)N[C@@H](CCCCN)C(=O)N[C@H](C(=O)N[C@@H](Cc1ccc(O)cc1)C(=O)N[C@@H](CS)C(N)=O)C(C)C [NoxaA]
- no binding up to (Bcl-2) [17]: > 2500 nM
- no binding up to (Bcl-xL) [18]: > 2500 nM
- no binding up to (Bfl-1) [19]: > 2500 nM
- binding to Mcl-1 in competition assay (in words) [20]: very weak
- no binding up to (Bcl-w) [21]: > 2500 nM
- EC50 [12]: > 100000 nM
- EC50 [14]: 20000 nM
- EC50 [22]: > 100000 nM
- EC50 [15]: > 100000 nM
